Assay results reported in the NIST ThermoML archive (doi:10.1016/j.jct.2012.09.003).

Legend:
[1] = 298.15 K, 101.33 kPa, Liquid; for viscosity: Capillary tube (Ostwald / Ubbelohde) method; for speed of sound: Linear variable-path acoustic interferometer; for mass density: Vibrating tube method
[2] = cn = amount concentration of the nth substance listed, in mol/dm3; details: 298.15 K, 101 kPa, Liquid; for viscosity: Capillary tube (Ostwald / Ubbelohde) method; for speed of sound: Linear variable-path acoustic interferometer; for mass density: Vibrating tube method

CC(=O)N(C)C [N,N-dimethylethanamide]
[1]
Details	mass density [kg/m3]	speed of sound [m/s]	viscosity [mPa·s]
–	936.8	1458.5	0.923

C[S+](C)[O-] [dimethyl sulfoxide]
[1]
Details	mass density [kg/m3]	speed of sound [m/s]	viscosity [mPa·s]
–	1096.02	1490.8	1.946

CN(C)C=O [dimethylformamide]
[1]
Details	mass density [kg/m3]	speed of sound [m/s]	viscosity [mPa·s]
–	944.5	1451.7	0.794

CCCC[P+](CCCC)(CCCC)CCCC.F[B-](F)(F)F [tetrabutylphosphonium tetrafluoroborate] + CC(=O)N(C)C
[2]
Details	mass density [kg/m3]	speed of sound [m/s]	viscosity [mPa·s]
c1 = 0.0053	937.22	1461.8	0.93
c1 = 0.0215	938.69	1473.5	0.949
c1 = 0.0377	940.34	1486.9	0.968
c1 = 0.0541	942.13	1501.6	0.987
c1 = 0.0705	944.01	1517.8	1.007
c1 = 0.0871	945.94	1536.3	1.028

CCCC[P+](CCCC)(CCCC)CCCC.F[B-](F)(F)F [tetrabutylphosphonium tetrafluoroborate] + CN(C)C=O
[2]
Details	mass density [kg/m3]	speed of sound [m/s]	viscosity [mPa·s]
c1 = 0.0053	944.98	1455.6	0.802
c1 = 0.0213	946.61	1468.7	0.82
c1 = 0.0374	948.4	1483.2	0.837
c1 = 0.0536	950.34	1498.6	0.854
c1 = 0.0699	952.4	1515.4	0.871
c1 = 0.0729	–	–	0.889
c1 = 0.0863	954.5	1533.8	–

CCCC[P+](CCCC)(CCCC)CCCC.F[B-](F)(F)F [tetrabutylphosphonium tetrafluoroborate] + C[S+](C)[O-]
[2]
Details	mass density [kg/m3]	speed of sound [m/s]	viscosity [mPa·s]
c1 = 0.0046	1096.05	1492.7	1.952
c1 = 0.0184	1096.4	1501.5	1.982
c1 = 0.0323	1097.02	1513.7	2.015
c1 = 0.0463	1097.84	1527.9	2.049
c1 = 0.0604	1098.83	1544.5	2.085
c1 = 0.0746	1099.98	1564.6	2.12
